# Measured values reported in patent US20190022239A1, “NOVEL BIOMOLECULE CONJUGATES AND USES THEREFOR” (The University of Western Australia, priority 2016, published 2019).
# “Also recorded” adds a separate entry of the source.
# Experiments:
# [1] = system: RIP-Tag insulinoma and 4T1 breast carcinoma; test: Tumour vessel perfusion (CD31:lectin ratio); format: in vivo, mice; settings: 2 μg/day × 5
# Protocol: The inventors then evaluated vessel perfusion in RIP-Tag insulinoma and 4T1. breast carcinoma from mice treated with TNFα-CSG (2 μg/day×5), as measured by CD31:lectin ratio following 10 min intravenous circulation of tomato green lectin.
# [2] = system: insulinoma; test: Tumour uptake of iron oxide micelles (MRI); format: in vivo, mice; settings: 2 μg dose daily for five days; 6 hr circulation
# Protocol: Reduced tumour ECM and stiffness, as well as improved perfusion was also shown to result in enhanced tumour uptake of a nano-imaging contrast agent. Specifically, insulinoma-bearing mice were treated with 2-10 μg TNFα-CSG or CSG control peptide by intravenous infection daily for five days. Following this, mice were intravenously injected with 100 μL of 1 mM iron oxide (IO) micelles (30 nm diameter). Tumours were harvested after 6 hr circulation and imaged by MRI and microscopic analysts of tissues mounted in 2% agarose. […] This accumulation was confirmed by immunostaining analysis of tissue cross sections using anti-FITC antibody.
# [3] = system: RIP-Tag insulinoma and hepatocellular carcinoma; test: In vivo binding specificity of fluorescein-labelled TNFα-CSG and native TNFα; set-up: species or system mice; settings: 130 μg i.v., 30 min circulation
# Protocol: Binding specificity of TNFα-CSG to tumours in vivo was assessed by detecting fluorescein-labelled TNFα-CSG and native unconjugated TNFα following 130 μg intravenous injection (30 min circulation).
# [4] = system: 4T1 tumour; test: Anti-tumorigenic effect on 4T1 tumour growth; format: in vivo, mice; settings: 2 μg, 6 injections in 2 weeks
# Protocol: The inventors have also discovered that TNFα-CSG has anti-tumorigenic effects, as evidenced by reduced tumour growth and reduced cell proliferation. 4T1 tumour-bearing mice were treated with 2 μg TNFα-CSG or control CSG peptide 4 days after inoculation with 5×10^5 4T1 cells. Each mouse received a total of 6 injections in 2 weeks.
# [5] = system: macrophage cell line J774; test: Bioactivity: J774 macrophages on matrigel attached with TNFα-CSG; format: cell-based; settings: 0.1 mmol on matrigel, 1 to 16 hrs
# Protocol: Bioactivity of TNFα-CSG was assessed in vitro, specifically by incubating macrophage cell, line, J774, on matrigel attached with TNFα-CSG (0.1 mmol).
# [6] = Toxicity of repeated intravenous injections; format: in vivo; settings: 0.5-10 μg daily i.v., total of 8 injections
# Protocol: To determine potential toxicity effects of TNFα-CSG, the inventors then administered TNFα-CSG intravenously to mice (n=6) at a dose ranging from 0.5-10 μg daily, to a total of 8 injections. TNFα-CSG is non-toxic at these doses and frequency.
# [7] = system: 4T1 breast tumours; test: Secondary metastasis of 4T1 breast tumours; format: in vivo, mice; settings: 10 μg daily i.v., up to eight injections
# Protocol: 4T1cells in blood, lung, liver and lymph nodes were harvested once the primary tumours reached 2,000 mm^3. Cell suspensions from these tissues were cultured in 6-thioguanine-containing media to select for 4T1 cells that are resistant to 6-thioguanine. Colonic metastasis of methylene blue stained cells were counted. It is known that the lung is the primary site of metastasis of breast tumours. […] Similarly, the colonic metastasis counts in liver and lymph nodes were lower in the TNFα-CSG treated group.
# [8] = system: atherosclerotic plaque; test: TNFα-CSG therapy of aging ApoE null mice; settings: for ALT / AST / Troponin: plasma, median (interquartile range)
# Protocol: Aging ApoE null mice were treated with 10 μg TNFα-CSG or 0.8 μg CSG peptide daily for five days by intravenous injection. Tissue, including aorta and plasma, were collected from euthanised animals at 70 weeks of age. Plasma samples were collected after 1 and 10 weeks of therapy and assessed for markers of (i) circulating cholesterol (total cholesterol, HDL and LDL), (ii) cardiac necrosis (troponin) and (iii) liver damage (alanine transaminase, ALT and aspartate transaminase, AST).
# [9] = system: hepatocellular carcinoma; test: Immune cell infiltration in hepatocellular carcinoma (FACS); format: in vivo, mice; settings: 2 μg daily i.v. for 5 days, healthy livers
# Protocol: Mice bearing hepatocellular carcinoma at 10 weeks of age were treated with 2 μg TNFα-CSG or control CSG peptide (in 100 μL) by daily intravenous injection for 5 days. The experiment was also conducted on mice with normal, healthy livers, FACS quantification of CD4+ and CD8+ T cells and infiltrating macrophages (CD11b+/CD68+) in whole tumours is shown in FIG. 7. Quantitative analysis of these tumours show at least 3 fold increase in immune cell infiltration compared to CSG-treated tumours (P<0.05).
# [10] = system: 4T1 breast carcinoma and RIP-Tag insulinoma; test: Tumour stiffness by optical coherence tomography/micro-elastography; format: in vivo, mice; settings: 2 μg/day × 4 total injections
# [11] = system: RIP-Tag insulinoma; test: Tumour ECM content (collagen-1, laminin, nidogen-1); format: in vivo, mice; settings: 2 μg or 5 μg i.v. daily for five days
# Protocol: As evidenced by analysis of the ECM components collagen-1, laminin and nidogen-1, intravenous injection of TNFα-CSG at a dose of 2 μg or 5 μg daily for five days to mice having a RIP-Tag insulinoma, specifically reduces tumour ECM content (FIG. 9).
# [12] = system: 4T1 tumour; test: Tumour uptake of Evans blue dye; format: in vivo, mice; settings: 2 μg i.v. for five days; Evans blue 30 min
# Protocol: As a result of the reduced tumour ECM content and increased tumour vessel perfusion (Example 4), the inventors then evaluated the ability of tumours treated with TNFα-CSG to take op various reagents. Mice bearing 4T1 tumour were treated with 2 μg TNFα-CSG or CSG control peptide by intravenous injection for five days. Following this, mice were intravenously injected with 100 μL, of 0.9% Evans blue solution and allowed to circulate for 30 min. Tumours were then harvested and photographed.
substance,measurement,setting,value
TNFα-CSG: Mature murine TNFα (SEQ ID NO:6) with C-terminal conjugated peptide CSGRRSSKC connected via a GGG linker; recombinant fusion protein,vessel width vs control treated tumours,[1],significantly wider
same,CD31:lectin ratio,[1]; 10 min i.v. circulation of lectin,~1
same,accumulation of FITC-labelled IO micelles in tumours (MRI T2* and T2 relaxation),[2],increased accumulation of FITC-labelled IO micelles
same,loss of signal (T2 relaxation time),[2],significantly lower
same,binding to tumour tissue in vivo,[3],specifically targeted
same,binding to normal tissues in vivo,[3]; normal tissues,"limited binding to normal pancreas, liver, heart, and kidney"
same,ratio of cytotoxic T cells to immune suppressor T cells,[4],significantly higher ratio of cytotoxic T cells to immune suppressor T cells
same,tumour cell proliferation (Ki67+),[4],significant reduction in tumour cell proliferation
same,tumour size and weight,[4]; vs control CSG peptide,significantly reduced
same,protease secretion by J774 cells,[5],secretion of MMP-2 and MMP-9
same,toxicity,[6],non-toxic
same,hypoxia in primary tumours,[7],significantly reduced hypoxia
same,lung metastasis (cell density/tissue),[7],significantly reduced lung metastasis
same,metastatic colony counts in liver and lymph nodes,[7],lower
same,tumour centre,[7],enlarged tumour centres that were cleared of tumour burden
same,plaque burden (plaque positive area),[8]; 10 μg daily i.v. for five days,significantly reduced plaque burden
same,circulating HDL levels,[8]; 10 weeks after administration,increase in circulating HDL levels; also recorded: significantly increased
same,circulating LDL,[8]; 10 weeks after administration,reduction in LDL
same,plasma LDL:HDL ratio,[8]; 10 weeks after therapy,reduced
same,plasma LDL:HDL ratio,[8]; after 1 week of therapy,increased
same,"activated endothelia (CD31+, endoglin+) in plaque intima","[8]; mouse, in vivo",increased the expression of activate endothelia
same,macrophage content (CD11b+) in plaque,"[8]; mouse, in vivo",reduced macrophage content
same,"ECM in plaque intima (collagen I, collagen IV, laminin)","[8]; mouse, in vivo, iv",degraded ECM in plaque intima
same,cardiac or liver toxicity,"[8]; plasma troponin, ALT, AST",did not elevate cardiac or liver toxicity
same,ALT,[8]; 1 week,33.3 (15.4-115.5) U/L
same,AST,[8]; 1 week,106 (74.0-195.5) U/L
same,Troponin,[8]; 1 week,15.3 (10.7-30.2) ng/L
same,ALT,[8]; 10 weeks,26.0 (18.5-79.8) U/L
same,AST,[8]; 10 weeks,81.5 (52.3-184.3) U/L
same,Troponin,[8]; 10 weeks,15.1 (5.7-24.0) ng/L
same,effect on immune cell infiltration in normal liver,[9],no effect on normal liver
same,tumour stiffness,[10],below 100 kPa
same,tissue stiffness (stiffness >100 kPa) and stiffness variance,[10]; frequency distribution,significantly reduced
same,ECM content in normal pancreas,[11],remained unaltered
same,"tumour ECM content (collagen-1, laminin, nidogen 1, excluding basement membrane)",[11],significant reduction in ECM content
same,tumour permeability to Evans blue dye vs control-treated tumours,[12],more permeable to Evans blue dye
